# How the values were obtained:
# [1] = Longitudinal relaxivity r1 in water at 60 MHz (WP80 NMR, Bruker); type: physicochemical; details: at 25° C., pH = 7.4, and 60 MHz
# Protocol: Equimolar quantities of ligand and MnCl2 were dissolved in milli-Q water, the pH was adjusted to 7.4 either with a buffered solution or by adding KOH or HCl to the solution and the samples were heated at 60° C. for 30 min. The absence of free Mn^2+ was checked by the Xylenol orange test.
# The relaxivity at 60 MHz is measured with a device commercialized under the brand name WP80 NMR by the firm Brucker according to the following protocol. A millimolar aqueous solution of complex was prepared with Milli-Q water (p<18MΩ). The concentration of Mn^2+-containing samples was checked by ICP-OES and/or NMR by using the bulk magnetic susceptibility. The absence of free Mn^2+ was checked by the Xylenol orange test. For the relaxivity measurement, the temperature was monitored by a VTC91 temperature control unit and maintained by a gas flow. The temperature was determined by previous calibration with a Pt resistance temperature probe.
# [2] = Kinetic inertness: half-life by transmetallation of the Mn2+ complex with excess Zn2+, followed by water proton relaxation rates; type: physicochemical; details: 25 eq Zn^2+, pH = 6, 37° C.; read-out: Half-life in excess of Zn^2+ (t1/2) (converted)
# Protocol: The excess of the exchanging metal ion guarantees the pseudo-first order conditions. For the duration of the experiments (up to 3 months), the samples were stored in a thermostat at 37° C. between the relaxivity measurements. The pH was controlled for each sample at the end of the kinetic measurements to confirm that it remained stable during the experiment. The reactions were monitored by measuring the water proton relaxation rates at 60 MHz on a relaxometer commercialized under the brand name Minispec by the firm a Bruker. The analysis of the experimental data was performed using Visualiseur/Optimiseur running on a MATLAB 8.3.0 (R2014a) platform according to equations (1) and (2): […]
# were [MnL]t stands for the total concentration of MnL complex, Kobs stands for the pseudo-first order constant and t1/2 is the half-life of the MnL complex in the given conditions.
# [3] = pH of 7.4, 60 MHz, 25° C.; cited from earlier work
smiles,measurement,setting,value
CN1[C@@H](c2ccccn2)C2(C(=O)O)CN([C@@H](CCCCNC(=O)CCOCCOCCO)C(=O)O)CC(C(=O)O)([C@H]2O)[C@H]1c1ccccn1 [(I-d)],Longitudinal relaxivity in water (r1),[1]; listed as (I-D),4.03 mM⁻¹ s⁻¹
same,half-life at 1 mM,[2],160 days
"CNC[C@H](O)[C@@H](O)[C@H](O)[C@H](O)CO.O=C([O-])CN1CCN(CC(=O)[O-])CCN(CC(=O)O)CCN(CC(=O)[O-])CC1.[Gd+3] [Dotarem, gadoterate meglumine]",relaxivity r1,[3],3.7 mM⁻¹ s⁻¹
CN1[C@@H](c2ccccn2)C2(C(=O)O)CN([C@@H](CCCCNC(=O)CCOCCOCCO)C(=O)O)CC(C(=O)O)([C@H]2O)[C@H]1c1ccccn1 [(I-a)],Longitudinal relaxivity in water (r1),[1]; listed as (I-A),4.89 mM⁻¹ s⁻¹
